Test results from the NIST ThermoML archive (doi:10.1021/acs.jced.8b00298).
Numbers after ± are expanded uncertainties.

Settings: Liquid
[1] = Visual observation in an unstirred cell

| Structure (SMILES) | Critical pressure (Capillary flow) [kPa] | Critical temperature (Capillary flow) [K] | Critical molar volume (Visual) [m3/mol] | Critical pressure (Visual) [kPa] | Critical temperature [1] [K] |
| --- | --- | --- | --- | --- | --- |
| CNC=O [N-methylformamide] | 6080 ± 260 | 715.6 ± 4 | – | – | – |
| CCCCCCOCCCCCC [dihexyl ether] | 1763 ± 110 | 663 ± 3 | – | – | – |
| COCC(C)=O [1-methoxy-2-propanone] | 4210 ± 90 | 584 ± 2 | – | – | – |
| COC(=O)CC(C)=O [methyl 3-oxobutanoate] | 3830 ± 140 | 652.8 ± 4 | – | – | – |
| COC(=O)OC [dimethyl carbonate] | 4450 ± 130 | 556.3 ± 3 | – | – | – |
| C1CCNCC1 [piperidine] | 4560 ± 140 | 594.4 ± 3 | – | – | – |
| COCCOCCOC [2,5,8-trioxanonane] | 2830 ± 120 | 619.7 ± 4 | – | – | – |
| C=C(C)CC(C)(C)C [2,4,4-trimethyl-1-pentene] | 2730 ± 120 | 550.7 ± 4 | – | – | – |
| CCC1CCCCC1 [ethylcyclohexane] | – | – | 0.00043 ± 2e-05 | 3110 ± 30 | 605.9 ± 0.2 |
| S=C=S [carbon disulfide] | – | – | 0.000176 ± 9e-06 | 7330 ± 60 | 552.5 ± 0.2 |
| C[C@@H]1CCCC[C@H]1C (relative stereo) [trans-1,2-dimethylcyclohexane] | – | – | 0.00044 ± 2e-05 | 3080 ± 30 | 596.3 ± 0.3 |
| C=C(C)OC(C)=O [1-methylvinyl ethanoate] | 3630 | 549.8 ± 2 | – | – | – |
| C=C(C)C(=O)OCC [ethyl 2-methylpropenoate] | 3170 ± 120 | 572 ± 3 | – | – | – |
| CCCCCCCCOCCCCCCCC [dioctyl ether] | 1446 ± 85 | 727 ± 4 | – | – | – |
| COCCC#N [3-methoxypropanenitrile] | 4040 ± 120 | 650.9 ± 2.4 | – | – | – |
| CCCCc1ccccc1 [butylbenzene] | – | – | 0.0005 ± 2e-05 | 2890 ± 30 | 660.3 ± 0.2 |

| Structure (SMILES) | Critical pressure (Capillary flow) [kPa] | Critical temperature (Capillary flow) [K] | Critical molar volume (Visual) [m3/mol] | Critical pressure (Visual) [kPa] | Critical temperature [1] [K] |
| --- | --- | --- | --- | --- | --- |
| COCCOC [1,2-dimethoxyethane] | – | – | 0.00031 ± 2e-05 | 3830 ± 40 | 535.32 ± 0.24 |
| O=C1CCCN1 [2-pyrrolidinone] | 5590 ± 220 | 789.1 ± 3.6 | – | – | – |
| C[C@@H]1CCC[C@H](C)C1 [cis-1,3-dimethylcyclohexane] | – | – | 0.00043 ± 2e-05 | 3040 ± 30 | 586.1 ± 0.2 |
| CN1CCCC1 [N-methylpyrrolidine] | – | – | 0.0003 ± 2e-05 | 4000 ± 40 | 548.62 ± 0.24 |
| C=CC(=O)OCC(CC)CCCC (stereo not given) [2-ethylhexyl 2-propenoate] | 2080 ± 140 | 672.5 ± 6 | – | – | – |
| C=CC(=O)OC [methyl propenoate] | 3990 ± 140 | 532.7 ± 2.6 | – | – | – |
| C[C@H]1CC[C@H](C)CC1 [trans-1,4-dimethylcyclohexane] | – | – | 0.00042 ± 2e-05 | 3060 ± 30 | 585.84 ± 0.24 |
| CCOC(=O)OCC [diethyl carbonate] | 3080 ± 120 | 578.2 ± 3 | – | – | – |
| SC1CCCCC1 [cyclohexanethiol] | 3970 ± 160 | 669.6 ± 4 | – | – | – |
| c1ccc(Cc2ccccc2)cc1 [diphenylmethane] | 2920 ± 60 | 770 ± 2 | – | – | – |
| C1CCSC1 [tetrahydrothiophene] | 5430 ± 300 | 634.6 ± 6 | – | – | – |
| CN(C)C=O [dimethylformamide] | 4720 ± 140 | 650.6 ± 3 | – | – | – |
| C=C(C)C(=O)OCCCC [butyl 2-methyl-2-propenoate] | 2520 ± 120 | 615.8 ± 4 | – | – | – |
| CN1CCCCC1 [N-methylpiperidine] | 3660 ± 160 | 581.5 ± 3.6 | – | – | – |
| Sc1ccccc1 [benzenethiol] | 4650 ± 180 | 689.2 ± 4 | – | – | – |
